According to patent publication US12162888B2, “Carboxamides as ubiquitin-specific protease inhibitors” (Valo Early Discovery, Inc., priority 2018, dated 2024):

Biological target: T1, USP28 (His-tagged USP28-FL-mammalian) (Homo sapiens, UniProt Q96RU2)
T1 construct: Expression of USP28 (1-1077)-TEV-6*His (pTT5 vector) was carried out in Expi293f cells; made in house; host or cells: Expi293F cells (pTT5 vector)
T1 sequence (Q96RU2 1-1077): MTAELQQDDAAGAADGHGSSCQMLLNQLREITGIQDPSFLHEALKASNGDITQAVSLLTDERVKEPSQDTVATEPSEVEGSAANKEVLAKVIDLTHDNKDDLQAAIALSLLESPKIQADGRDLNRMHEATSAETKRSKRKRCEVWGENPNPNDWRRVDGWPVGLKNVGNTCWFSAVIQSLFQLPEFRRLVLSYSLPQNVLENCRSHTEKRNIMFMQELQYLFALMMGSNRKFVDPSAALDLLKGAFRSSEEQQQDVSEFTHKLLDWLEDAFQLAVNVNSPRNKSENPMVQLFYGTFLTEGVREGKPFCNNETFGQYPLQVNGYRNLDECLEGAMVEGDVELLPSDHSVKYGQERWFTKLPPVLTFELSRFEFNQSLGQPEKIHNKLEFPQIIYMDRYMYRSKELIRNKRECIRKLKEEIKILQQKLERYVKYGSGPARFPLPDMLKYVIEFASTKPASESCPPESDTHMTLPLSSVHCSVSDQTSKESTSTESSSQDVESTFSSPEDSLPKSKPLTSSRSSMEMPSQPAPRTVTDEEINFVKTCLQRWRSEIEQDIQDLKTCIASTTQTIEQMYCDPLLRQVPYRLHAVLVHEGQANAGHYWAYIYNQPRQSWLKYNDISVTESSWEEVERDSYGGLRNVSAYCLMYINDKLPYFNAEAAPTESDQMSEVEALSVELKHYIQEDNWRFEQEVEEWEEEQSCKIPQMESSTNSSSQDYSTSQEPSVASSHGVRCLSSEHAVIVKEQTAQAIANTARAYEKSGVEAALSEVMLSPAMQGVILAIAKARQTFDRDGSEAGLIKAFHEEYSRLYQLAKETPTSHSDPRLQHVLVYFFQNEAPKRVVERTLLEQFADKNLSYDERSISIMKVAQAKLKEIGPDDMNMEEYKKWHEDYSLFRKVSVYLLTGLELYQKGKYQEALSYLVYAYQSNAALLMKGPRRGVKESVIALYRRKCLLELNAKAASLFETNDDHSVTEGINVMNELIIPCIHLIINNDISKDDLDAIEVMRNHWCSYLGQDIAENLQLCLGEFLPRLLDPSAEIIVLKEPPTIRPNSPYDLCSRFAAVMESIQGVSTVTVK
Assay: Ubiquitin-Rhodamine 110 Assay for USP28 Activity, Example A-1(a)
Type: biochemical
Conditions: biochemical IC50 range, Ubiquitin-Rhodamine 110 assay, read-out: USP28 A-1(a)
Summary of the method: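 IC50s were fitted with a 4-parameter logistic to percent inhibition relative to no-enzyme and DMSO controls, using Rhodamine 110 fluorescence (485/535 nm) released from 25 nM Ub-Rh110. The enzyme was Expi293F-expressed USP28-FL-His at […], preincubated 30 min with compound (10-point, 25 μM top) in Tris pH 8.0 buffer containing BGG and Triton X-100. Substrate turnover ran 45 min at room temperature and was stopped with 10 mM citric acid.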

Row | Compound | IC50 [nM]
1 | CN[C@@H]1CN(c2ccc3c(c2)OC[C@H](NC(=O)c2sc4nc(C)ccc4c2N)C3)C[C@@H]1COC [Example 680, 3-amino-N-[(3R)-7-[(3S,4S)-3-(methoxymethyl)-4-(methylamino)pyrrolidin-1-yl]-3,4-dihydro-2H-1-benzopyran-3-yl]-6-methylthieno[2,3-b]pyridine-2-carboxamide] | 1 to 50
2 | Cc1ccc2c(N)c(C(=O)N[C@H]3COc4cc(N5C[C@H](N)C6(C5)OCCO6)ccc4C3)sc2n1 [Example 681, 3-amino-N-[(3R)-7-[(9S)-9-amino-1,4-dioxa-7-azaspiro[4.4]nonan-7-yl]-3,4-dihydro-2H-1-benzopyran-3-yl]-6-methylthieno[2,3-b]pyridine-2-carboxamide] | 1 to 50
3 | Cc1ccc2c(N)c(C(=O)N[C@H]3COc4cc(N5C[C@@H](N)C6(C5)OCCO6)ccc4C3)sc2n1 [Example 682, 3-amino-N-[(3R)-7-[(9R)-9-amino-1,4-dioxa-7-azaspiro[4.4]nonan-7-yl]-3,4-dihydro-2H-1-benzopyran-3-yl]-6-methylthieno[2,3-b]pyridine-2-carboxamide] | 50 to 200
4 | Cc1ccc2c(N)c(C(=O)N[C@H]3COc4cc(N5CC[C@]6(CCCN6)C5)cc(F)c4C3)sc2n1 [Example 683, 3-amino-N-[(3R)-7-[(5R)-1,7-diazaspiro [4.4]nonan-7-yl]-5-fluoro-3,4-dihydro-2H-1-benzopyran-3-yl]-6-methylthieno [2,3-b]pyridine-2-carboxamide] | 1 to 50
5 | Cc1ccc2c(N)c(C(=O)N[C@H]3COc4cc(N5CC[C@@]6(CCCN6)C5)cc(F)c4C3)sc2n1 [Example 684, 3-amino-N-[(3R)-7-[(5S)-1,7-diazaspiro[4.4]nonan-7-yl]-5-fluoro-3,4-dihydro-2H-1-benzopyran-3-yl]-6-methylthieno [2,3-b]pyridine-2-carboxamide] | 1 to 50
6 | Cc1ccc2c(N)c(C(=O)N[C@H]3COc4cc(OC[C@@H]5CNCC5(F)F)ccc4C3)sc2n1 [Example 685, 3-amino-N-[(3R)-7-{[(3S)-4,4-difluoropyrrolidin-3-yl]methoxy}-3,4-dihydro-2H-1-benzopyran-3-yl]-6-methylthieno[2,3-b]pyridine-2-carboxamide] | 1 to 50
7 | Cc1ccc2c(N)c(C(=O)N[C@H]3COc4cc(OC[C@H]5CNCC5(F)F)ccc4C3)sc2n1 [Example 686, 3-amino-N-[(3R)-7-{[(3R)-4,4-difluoropyrrolidin-3-yl]methoxy}-3,4-dihydro-2H-1-benzopyran-3-yl]-6-methylthieno[2,3-b]pyridine-2-carboxamide] | 1 to 50
8 | Cc1ccc2c(N)c(C(=O)N[C@H]3COc4cc(OC[C@@H]5CNC[C@H]5C(F)(F)F)ccc4C3)sc2n1 [Example 687, 3-amino-6-methyl-N-[(3R)-7-{[(3S,4S)-4-(trifluoromethyl)pyrrolidin-3-yl]methoxy}-3,4-dihydro-2H-1-benzopyran-3-yl]thieno[2,3-b]pyridine-2-carboxamide] | 1 to 50
9 | Cc1ccc2c(N)c(C(=O)N[C@H]3COc4cc(OC[C@H]5CNC[C@@H]5C(F)(F)F)ccc4C3)sc2n1 [Example 688, 3-amino-6-methyl-N-[(3R)-7-{[(3R,4R)-4-(trifluoromethyl)pyrrolidin-3-yl]methoxy}-3,4-dihydro-2H-1-benzopyran-3-yl]thieno[2,3-b]pyridine-2-carboxamide] | 1 to 50
10 | CO[C@@H]1CCCN(c2cc(F)c3c(c2)OC[C@H](NC(=O)c2sc4nc(C)ccc4c2N)C3)C[C@H]1N [Example 689, 3-amino-N-[(3R)-7-[(3R,4R)-3-amino-4-methoxyazepan-1-yl]-5-fluoro-3,4-dihydro-2H-1-benzopyran-3-yl]-6-methylthieno[2,3-b]pyridine-2-carboxamide] | 1 to 50
11 | COC1CCCN(c2cc(F)c3c(c2)OCC(NC(=O)c2sc4nc(C)ccc4c2N)C3)CC1N [Example 690, 3-amino-N-[(3R)-7-[(3S,4S)-3-amino-4-methoxyazcpan-1-yl]-5-fluoro-3,4-dihydro-2H-1-benzopyran-3-yl]-6-methylthieno[2,3-b]pyridine-2-carboxamide] | 1 to 50
12 | CO[C@H]1CCCN(c2cc(F)c3c(c2)OC[C@H](NC(=O)c2sc4nc(C)ccc4c2N)C3)C[C@H]1N [Example 691, 3-amino-N-[(3R)-7-[(3R,4S)-3-amino-4-methoxyazepan-1-yl]-5-fluoro-3,4-dihydro-2H-1-benzopyran-3-yl]-6-methylthieno[2,3-b]pyridine-2-carboxamide] | 50 to 200
13 | CO[C@@H]1CCCN(c2cc(F)c3c(c2)OC[C@H](NC(=O)c2sc4nc(C)ccc4c2N)C3)C[C@@H]1N [Example 692, 3-amino-N-[(3R)-7-[(3S,4R)-3-amino-4-methoxyazepan-1-yl]-5-fluoro-3,4-dihydro-2H-1-benzopyran-3-yl]-6-methylthieno[2,3-b]pyridine-2-carboxamide] | 1 to 50
14 | CO[C@H]1CN(c2cc(F)c3c(c2)OC[C@H](NC(=O)c2sc4nc(C)ncc4c2N)C3)C[C@@H]1N [Example 693, 5-amino-N-[(3R)-7-[(3S,4S)-3-amino-4-methoxypyrrolidin-1-yl]-5-fluoro-3,4-dihydro-2H-1-benzopyran-3-yl]-2-methylthieno[2,3-d]pyrimidine-6-carboxamide] | 200 to 2000
15 | COC[C@@H]1CN(c2cc(F)c3c(c2)OC[C@H](NC(=O)c2sc4nc(C)ncc4c2N)C3)C[C@@H]1N [Example 694, 5-amino-N-[(3R)-7-[(3R,4R)-3-amino-4-(methoxymethyl)pyrrolidin-1-yl]-5-fluoro-3,4-dihydro-2H-1-benzopyran-3-yl]-2-methylthieno[2,3-d]pyrimidine-6-carboxamide] | 200 to 2000
16 | CN[C@@H]1CN(c2cc(F)c3c(c2)OC[C@H](NC(=O)c2sc4nc(C)ncc4c2N)C3)C[C@H]1COC [Example 695, 5-amino-N-[(3R)-5-fluoro-7-[(3R,4S)-3-(methoxymethyl)-4-(methylamino)pyrrolidin-1-yl]-3,4-dihydro-2H-1-benzopyran-3-yl]-2-methylthieno[2,3-d]pyrimidine-6-carboxamide] | 200 to 2000
17 | CCn1cc(Cl)c2cc(C(=O)N[C@H]3COc4cc(N5C[C@H](OC)[C@@H](N)C5)ccc4C3)nnc21 [Example 696, N-[(3R)-7-[(3S,4S)-3-amino-4-methoxypyrrolidin-1-yl]-3,4-dihydro-2H-1-benzopyran-3-yl]-5-chloro-7-ethyl-7Hpyrrolo[2,3-c]pyridazine-3-carboxamide] | 200 to 2000
